Columns and labels:
DNA = conditions: mutation relative to canonical SpCas9, SEQ ID NO: 18; cited from earlier work
[1] = test system: 5′-Cy5-labeled dsDNA substrates; assay: In vitro TPRT (prime editing) primer extension assay, denaturing urea PAGE; type: biochemical; conditions: standard gRNA (gRNA_0, lane 3), substrates not pre-nicked
Description: All reactions are with M-MLV RT.
Fluorescently labeled (Cy5) DNA targets were used as substrates, and were pre-nicked in this set of experiments. […] Then, the fluorescently labeled DNA substrate was added along with dNTPs and the RT enzyme. After 1 hour of incubation at 37° C., the reaction products were analyzed by denaturing urea-polyacrylamide gel electrophoresis (PAGE).
However, the DNA substrates are not pre-nicked in this set of experiments. […] The reaction products were analyzed by denaturing urea-polyacrylamide gel electrophoresis (PAGE).
Reactions were incubated at 37° C. for 1 hour, then analyzed by denaturing urea PAGE and visualized for Cy5 fluorescence.
Reactions were allowed to proceed at 37° C. for 1 hour prior to separation by denaturing urea PAGE and visualization by Cy5 fluorescence.

Row | Substance | Function/Characteristic (as reported) (DNA) | cleavage of the DNA strand by the nickase [1]
1 | 1099-1368 deletion: SpCas9 mutation relative to SEQ ID NO: 18 | No nuclease activity | –
2 | Cas9 nickase: Cas9 nickase (SpyCas9 H840A mutant) | – | efficiently cleaves
3 | D10A: SpCas9 mutation relative to SEQ ID NO: 18 | Nickase mutant which cleaves the protospacer | –
4 | H840A: SpCas9 mutation relative to SEQ ID NO: 18 | Nickase mutant which cleaves the non-protospacer | –
